Each compound was assayed against T1, Sentrin-specific protease 1 (Homo sapiens, UniProt Q9P0U3).
T1 sequence (Q9P0U3 whole entry): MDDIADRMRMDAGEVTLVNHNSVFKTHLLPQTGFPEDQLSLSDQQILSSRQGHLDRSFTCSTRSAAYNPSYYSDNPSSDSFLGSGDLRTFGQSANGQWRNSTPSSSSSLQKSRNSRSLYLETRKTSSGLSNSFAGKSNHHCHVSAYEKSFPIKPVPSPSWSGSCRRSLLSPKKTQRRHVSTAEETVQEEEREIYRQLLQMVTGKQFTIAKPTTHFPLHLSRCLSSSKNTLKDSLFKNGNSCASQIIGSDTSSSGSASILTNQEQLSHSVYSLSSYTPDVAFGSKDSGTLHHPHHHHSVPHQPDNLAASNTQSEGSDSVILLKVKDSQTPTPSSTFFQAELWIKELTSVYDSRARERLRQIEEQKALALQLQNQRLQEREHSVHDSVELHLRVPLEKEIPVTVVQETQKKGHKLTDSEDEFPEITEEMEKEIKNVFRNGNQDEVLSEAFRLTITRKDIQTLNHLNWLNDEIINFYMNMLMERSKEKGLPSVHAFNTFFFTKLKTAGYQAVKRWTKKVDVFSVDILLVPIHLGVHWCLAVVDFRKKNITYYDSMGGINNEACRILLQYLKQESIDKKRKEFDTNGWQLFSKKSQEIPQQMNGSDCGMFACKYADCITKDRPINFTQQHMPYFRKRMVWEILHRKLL

IC50	Structure (SMILES)
17.9 µM	CCN1C(=O)c2cccc3c(NC(=O)c4cccc(-n5c(O)ccc5O)c4)ccc1c23 [3-(2,5-dioxopyrrolidin-1-yl)-N-(1-ethyl-2-oxobenzo[cd]indol-6-yl)benzamide]
> 80 µM	CCN(CC)CCNc1cccc2sc3ccccc3c(=O)c12 [SMR001821489]
12.5 µM	O=NC1c2cc([N+](=O)[O-])ccc2-c2cc(Cl)c(NC(=O)C(F)(F)F)cc21 (stereo unspecified) [MLS002707326]
> 80 µM	CCOC(=O)/C(C#N)=C/C=C1\C=Cc2ccccc2N1CC [(E,4E)-2-cyano-4-(1-ethyl-2-quinolinylidene)-2-butenoic acid ethyl ester]
21.5 µM	O=[N+]([O-])c1ccc(C/N=N/c2ccccc2)cc1
10.9 µM	CCOC1=CC(=Cc2sc(=O)[nH]c2N)C=CC1=O
10.1 µM	CN(C)c1ccc(C=NNC(=O)C(=O)CC2=NC3(CCCC3)Cc3ccccc32)cc1 [MLS000589038]
31 µM	COc1ccc(-n2c(O)c3c(c2O)C(C(=O)c2ccccc2)N2CCCC32)cc1 (stereo unspecified) [MLS000762485]
10.8 µM	Oc1c2c(c(O)n1-c1ccccn1)C(c1ccccc1)C=CC2c1ccccc1 (stereo unspecified) [4,7-diphenyl-2-pyridin-2-yl-3a,4,7,7a-tetrahydroisoindole-1,3-dione]
19.3 µM	COc1ccc(C=Nn2c(O)csc2=S)cc1Br [3-[(E)-(3-bromo-4-methoxyphenyl)methylideneamino]-2-sulfanylidene-4-thiazolidinone]
> 80 µM	O=C1NC(=S)N/C1=C/c1cccc([N+](=O)[O-])c1O [(5E)-5-[(2-hydroxy-3-nitrophenyl)methylidene]-2-sulfanylideneimidazolidin-4-one]
18.1 µM	CC1=C(C#N)C(=O)NC(=O)C1=NNc1ccc(Br)cc1C(=O)O [MLS001213177]
15.1 µM	O=C(O)c1ccc(N=NCc2cccc3nccnc23)cc1 [4-[(2E)-2-(5-quinoxalinylmethylidene)hydrazinyl]benzoic acid]
9.57 µM	CCOc1cc(C=c2[nH]c3n(c2=O)CCCCC=3)ccc1O [MLS000774439]
5.56 µM	COc1ccc(-n2c(O)c3c(c2O)C(C(=O)c2ccc(Cl)cc2)N2CCCC32)cc1 (stereo unspecified)
7.5 µM	CC(=O)Oc1ccc(-n2c(O)c3c(c2O)C(C(=O)c2ccc(Cl)cc2)N2CCCC32)cc1 (stereo unspecified) [Acetic acid 4-[4-(4-chloro-benzoyl)-1,3-dioxo-octahydro-pyrrolo[3,4-a]pyrrolizin-2-yl]-phenyl ester]
> 80 µM	Nc1cc([N+](=O)[O-])ccc1Nc1ccccc1 [SMR000271721]
8.36 µM	O=C(Cc1cccc2ccccc12)NC(NC(=S)Nc1ccccc1Cl)C(Cl)(Cl)Cl (stereo unspecified) [2-(1-naphthyl)-N-[2,2,2-trichloro-1-({[(2-chlorophenyl)amino]carbonothioyl}amino)ethyl]acetamide]
11.6 µM	COc1nccnc1NS(=O)(=O)c1ccc(NC(=S)NC(=O)c2ccc(F)cc2)cc1 [4-[3-(4-Fluoro-benzoyl)-thioureido]-N-(3-methoxy-pyrazin-2-yl)-benzenesulfonamide]
13.1 µM	O=C1CC(=O)c2cccc3cccc1c23 [3-hydroxy-1H-phenalen-1-one]
41.9 µM	N#CC1C(=N)Oc2cc(Nc3ccccc3)ccc2C1c1ccncc1 (stereo unspecified) [2-amino-7-anilino-4-pyridin-4-yl-4H-1-benzopyran-3-carbonitrile]
21 µM	O=C1CC(=Nc2ccc(Cl)cc2)C(=O)N1c1ccc(Cl)cc1 [1-(4-chlorophenyl)-3-[(4-chlorophenyl)amino]pyrrole-2,5-dione]
29 µM	CC1(C)CC(=O)C2Sc3ccccc3N=C2C1 (stereo unspecified) [2,2-Dimethyl-2,3-dihydro-1H,10H-phenothiazin-4-one]
13.7 µM	O=C1CCCC2=Nc3cc(Cl)ccc3SC12 (stereo unspecified) [MLS000333002]
18.1 µM	Nc1ccc2c(c1)C(N=O)c1cc([N+](=O)[O-])ccc1-2 (stereo unspecified) [N-(2-azanyl-7-nitro-fluoren-9-ylidene)hydroxylamine]
> 80 µM	COc1ccc(OC)c(CCNC(=O)c2ccc3c(=O)[nH]c4c(C(=O)NC(C)C)sc(=S)n4c3c2)c1
